Reference: patent US12370256B2, “Activation of resident memory T cells for the treatment of cancer” (Regents of the University of Minnesota, priority 2017, dated 2025)

Test system: B16 melanoma
Format: in vivo, C57B/6 mice

Sequence: SIINFEKL (Synthetically generated peptide)
- tumor growth (tumor size) (peptide alone, 0.5 μg in 30 μl PBS into established palpable tumor, once or twice 2 days apart, no adjuvant): significant inhibition of a rapidly growing tumor
- tumor size and survival, peptide combined with PD-L1 blockade (peptide twice intratumorally over 48 h plus three i.v. injections of anti-PDL1): synergizes with PD-L1 blockade
